Values joined by “and” are separate entries in the source; they are usually repeats but may differ in a detail not shown here. Equal values may be shown once. Inconclusive results and toxic doses are left out. How the source made its calls: active means survival T/C of 150% or more; inactive means T/C below 125% in these data.
Tested on: BDF1 mice, Lewis lung carcinoma iv, survival T/C
Experiment: NCI In Vivo Anticancer Drug Screen. Data for tumor model Lewis Lung Carcinoma (intravenous) in B6D2F1 (BDF1) mice
Conditions: endpoint: median survival time, higher = longer survival
Description: The antitumor activity of compounds was measured in mice bearing transplantable tumors. Survival or tumor size were measured and the results are expressed as the measurement made in the treated group (T) divided by the measurement made in the vehicle treated control group (C). The tumor model used in this assay is Lewis Lung Carcinoma (intravenous) in B6D2F1 (BDF1) mice

[1] = dose: 1.56 mg/kg/injection, schedule: Q01DX009 (ip), vehicle: saline
[2] = dose: 3.12 mg/kg/injection, schedule: Q01DX009 (ip), vehicle: saline
[3] = dose: 6.25 mg/kg/injection, schedule: Q01DX009 (ip), vehicle: saline
[4] = dose: 12.5 mg/kg/injection, schedule: Q01DX009 (ip), vehicle: saline
[5] = dose: 25.0 mg/kg/injection, schedule: Q01DX009 (ip), vehicle: saline
[6] = dose: 25.0 mg/kg/injection, schedule: Q01DX009 (ip), vehicle: Klucel (hydroxypropylcellulose) (HPC)
[7] = dose: 50.0 mg/kg/injection, schedule: Q01DX009 (ip), vehicle: Klucel (hydroxypropylcellulose) (HPC)
[8] = dose: 100.0 mg/kg/injection, schedule: Q01DX009 (ip), vehicle: Klucel (hydroxypropylcellulose) (HPC)
[9] = dose: 6.25 mg/kg/injection, schedule: Q01DX009 (ip), vehicle: Klucel (hydroxypropylcellulose) (HPC)
[10] = dose: 12.5 mg/kg/injection, schedule: Q01DX009 (ip), vehicle: Klucel (hydroxypropylcellulose) (HPC)
[11] = dose: 200.0 mg/kg/injection, schedule: Q01DX009 (ip), vehicle: Klucel (hydroxypropylcellulose) (HPC)
[12] = dose: 6.25 mg/kg/injection, schedule: Q01DX009 (ip), vehicle: saline with Tween-80
[13] = dose: 12.5 mg/kg/injection, schedule: Q01DX009 (ip), vehicle: saline with Tween-80

Measured: T/C

O=C(NO)c1ccc(O)c(O)c1
inactive: dose: 25.0 mg/kg/injection, schedule: Q01DX009 (ip), vehicle: water 100 % of control | dose: 50.0 mg/kg/injection, schedule: Q01DX009 (ip), vehicle: water 100 % of control | dose: 100.0 mg/kg/injection, schedule: Q01DX009 (ip), vehicle: water 100 % of control | dose: 200.0 mg/kg/injection, schedule: Q01DX009 (ip), vehicle: water 108 % of control | dose: 300.0 mg/kg/injection, schedule: Q01DX009 (ip), vehicle: suspension in saline 117 % of control | dose: 400.0 mg/kg/injection, schedule: Q01DX009 (ip), vehicle: suspension in saline 114 % of control | dose: 500.0 mg/kg/injection, schedule: Q01DX009 (ip), vehicle: suspension in saline 122 % of control

CC1CN1CC(O)C(O)CN1CC1C (configuration not stated)
inactive: dose: 0.25 mg/kg/injection, schedule: Q01DX009 (ip), vehicle: saline 99 % of control | dose: 0.5 mg/kg/injection, schedule: Q01DX009 (ip), vehicle: saline 111 % of control and 116 % of control | dose: 1.0 mg/kg/injection, schedule: Q01DX009 (ip), vehicle: saline 121 % of control and 116 % of control | dose: 2.0 mg/kg/injection, schedule: Q01DX009 (ip), vehicle: saline 123 % of control

N=[N+]=CC(=O)OCC(N)C(=O)O (configuration not stated)
inactive: dose: 0.78 mg/kg/injection, schedule: Q01DX009 (ip), vehicle: saline 98 % of control | [1] 103 % of control | [2] 100 % of control | [3] 104 % of control | [4] 117 % of control

CCCNc1ncnc2c1cnn2C
inactive: [4] 100 % of control | [5] 105 % of control | dose: 50.0 mg/kg/injection, schedule: Q01DX009 (ip), vehicle: saline 109 % of control

CCCCCc1cc(/C=C2/N=C(c3ccc[nH]3)C=C2OC)[nH]c1C
inactive: dose: 0.25 mg/kg/injection, schedule: Q01DX009 (ip), vehicle: suspension in saline 94 % of control | dose: 0.5 mg/kg/injection, schedule: Q01DX009 (ip), vehicle: suspension in saline 100 % of control | dose: 1.0 mg/kg/injection, schedule: Q01DX009 (ip), vehicle: suspension in saline 103 % of control | dose: 2.0 mg/kg/injection, schedule: Q01DX009 (ip), vehicle: suspension in saline 103 % of control | dose: 4.0 mg/kg/injection, schedule: Q01DX009 (ip), vehicle: suspension in saline 106 % of control | dose: 8.0 mg/kg/injection, schedule: Q01DX009 (ip), vehicle: suspension in saline 109 % of control

COc1cccc2c1C(=O)c1c(O)c3c(c(O)c1C2=O)C[C@@](O)(/C(C)=N\NC(=O)CO)C[C@@H]3OC1CC(N)C(O)C(C)O1 (some centres not stated)
inactive: dose: 0.37 mg/kg/injection, schedule: Q01DX009 (ip), vehicle: saline 105 % of control | dose: 0.75 mg/kg/injection, schedule: Q01DX009 (ip), vehicle: saline 106 % of control | dose: 1.5 mg/kg/injection, schedule: Q01DX009 (ip), vehicle: saline 101 % of control | dose: 3.0 mg/kg/injection, schedule: Q01DX009 (ip), vehicle: saline 115 % of control | dose: 6.0 mg/kg/injection, schedule: Q01DX009 (ip), vehicle: saline 103 % of control | dose: 12.0 mg/kg/injection, schedule: Q01DX009 (ip), vehicle: saline 105 % of control

CC(C)([NH-])CO.CC(C)([NH-])CO.[Cl][Cd][Cl]
inactive: dose: 0.63 mg/kg/injection, schedule: Q01DX009 (ip), vehicle: saline with Tween-80 97 % of control | dose: 1.25 mg/kg/injection, schedule: Q01DX009 (ip), vehicle: saline with Tween-80 88 % of control | dose: 2.5 mg/kg/injection, schedule: Q01DX009 (ip), vehicle: saline with Tween-80 99 % of control

Nc1ccn(C2OC(COP(=O)(O)O)C(O)C2O)c(=O)n1 (configuration not stated)
inactive: dose: 16.0 mg/kg/injection, schedule: Q01DX009 (ip), vehicle: saline 121 % of control | dose: 32.0 mg/kg/injection, schedule: Q01DX009 (ip), vehicle: saline 106 % of control

C/C=C(\C)c1cc(=O)c2c(C)cc3c(c2o1)C(=O)c1c(O)c(C2CC(C)(N(C)C)C(O)C(C)O2)cc(C2CC(N(C)C)C(O)C(C)O2)c1C3=O (configuration not stated)
inactive: dose: 31.25 micrograms/kg/injection, schedule: Q01DX009 (ip), vehicle: saline 103 % of control | dose: 62.5 micrograms/kg/injection, schedule: Q01DX009 (ip), vehicle: saline 106 % of control | dose: 125.0 micrograms/kg/injection, schedule: Q01DX009 (ip), vehicle: saline 112 % of control | dose: 250.0 micrograms/kg/injection, schedule: Q01DX009 (ip), vehicle: saline 86 % of control

Nc1ccc2ccc(O)cc2c1
inactive: dose: 25.0 mg/kg/injection, schedule: Q01DX009 (ip), vehicle: saline with Tween-80 100 % of control | dose: 50.0 mg/kg/injection, schedule: Q01DX009 (ip), vehicle: saline with Tween-80 99 % of control | dose: 100.0 mg/kg/injection, schedule: Q01DX009 (ip), vehicle: saline with Tween-80 91 % of control

NC(=O)c1ncn(C2OC(CO)C(O)C2O)n1 (configuration not stated)
inactive: dose: 10.0 mg/kg/injection, schedule: Q01DX009 (ip), vehicle: saline 110 % of control | dose: 20.0 mg/kg/injection, schedule: Q01DX009 (ip), vehicle: saline 110 % of control | dose: 40.0 mg/kg/injection, schedule: Q01DX009 (ip), vehicle: saline 101 % of control | dose: 80.0 mg/kg/injection, schedule: Q01DX009 (ip), vehicle: saline 97 % of control | dose: 160.0 mg/kg/injection, schedule: Q01DX009 (ip), vehicle: saline 106 % of control

CCC1(O)CC2CN(CCc3c([nH]c4ccccc34)C(C(=O)OC)(c3cc4c(cc3OC)N(C)C3C(O)(C(N)=O)C(O)C5(CC)C=CCN6CCC43C65)C2)C1 (configuration not stated) (tested in a mixture with another compound)
inactive: dose: 0.6 mg/kg/injection, schedule: Q04DX003 (ip), vehicle: saline 106 % of control | dose: 1.0 mg/kg/injection, schedule: Q04DX003 (ip), vehicle: saline 111 % of control | dose: 1.67 mg/kg/injection, schedule: Q04DX003 (ip), vehicle: saline 97 % of control | dose: 216.0 micrograms/kg/injection, schedule: Q01DX009 (ip), vehicle: saline 93 % of control | dose: 360.0 micrograms/kg/injection, schedule: Q01DX009 (ip), vehicle: saline 97 % of control

CN1CCN(CCCN2c3ccccc3Sc3ccc(C(F)(F)F)cc32)CC1
inactive: [2] 109 % of control | [3] 120 % of control | [4] 109 % of control

c1nc(N2CC2)c2cnn(C3CCCCO3)c2n1 (configuration not stated)
inactive: [6] 107 % of control | [7] 100 % of control | [8] 101 % of control

CCCCCC[C@H]([C@H](C)O)n1cnc2c(N)ncnc21
inactive: [9] 99 % of control | [10] 104 % of control | [6] 103 % of control | [8] 96 % of control | [11] 99 % of control

CN=C(N)N/N=C(\c1ccccc1)c1ccc(Br)cc1
inactive: dose: 1.5 mg/kg/injection, schedule: Q01DX009 (ip), vehicle: saline with Tween-80 95 % of control | dose: 3.0 mg/kg/injection, schedule: Q01DX009 (ip), vehicle: saline with Tween-80 98 % of control | [12] 99 % of control | [13] 105 % of control

COc1cc(OC)c(OC)cc1/C=C\c1ccnc2ccccc12
inactive: [6] 113 % of control | [7] 105 % of control | [8] 100 % of control | [11] 107 % of control

COc1ccc(C(N)=O)cc1N=NN(C)C
inactive: dose: 3.12 mg/kg/injection, schedule: Q01DX009 (ip), vehicle: Klucel (hydroxypropylcellulose) (HPC) 95 % of control | [9] 98 % of control | [10] 118 % of control | [6] 110 % of control

OCCOCCN1CCN(CCCN2c3ccccc3Sc3ccc(C(F)(F)F)cc32)CC1
inactive: [1] 110 % of control | [2] 105 % of control | [3] 102 % of control | [4] 123 % of control

CC[As](=O)(O)CC
inactive: [5] 105 % of control | dose: 100.0 mg/kg/injection, schedule: Q01DX009 (ip), vehicle: saline 101 % of control | dose: 200.0 mg/kg/injection, schedule: Q01DX009 (ip), vehicle: saline 86 % of control

CCc1nc(N)nc(N)c1-c1ccc(Cl)c([N+](=O)[O-])c1
inactive: dose: 1.56 mg/kg/injection, schedule: Q01DX009 (ip), vehicle: saline with Tween-80 100 % of control | dose: 3.12 mg/kg/injection, schedule: Q01DX009 (ip), vehicle: saline with Tween-80 98 % of control | [12] 111 % of control | [13] 111 % of control
